Reference: patent US9289445B2, “Compositions and methods for treating or preventing a retrovirus infection” (University of Rochester, priority 2011, dated 2016)

Experiments:
[1] = system: human primary CD4+ T cells; assay: Cytotoxicity of rACT, FACS/trypan blue; assay type: cell-based; conditions: concentrations up to 1 mM, 2 days
Experimental: (§1) FIGS. 6A-6E show inhibition of HIV-1 reverse transcription by 3′ deoxyadenosine chain terminator (rACT) in human primary macrophages and its cytotoxicity. FIG. 6A includes a graph showing the cytotoxicity of rACT in human primary CD4^+ T cells, U937 cells, and CHME5 cells. These three types of cells were cultured and treated with different concentrations of rACT (up to 1 mM) for 2 days, and the percentage of live and dead cells were determined by FACS and/or trypan blue staining. The percentage of the live cells in the absence of rACT was used for normalization (100%), and the base line cell death of these cell types in the absence of rACT were less than 5%. FIG. 6B includes FACS results. […] The percentages of GFP positive macrophages and PI positive cells in a representative donor, which were determined by FACS at 7 days post transduction, are shown. […] Genomic DNAs were extracted from the transduced macrophages in FIG. 6B, and were used in a quantitative 2LTR circle PCR assay. Viral production was determined by p24 ELISA with the collected media. […]
(§2) First, the cytotoxicity of rACT in human primary CD4^+ T cells, human primary macrophages, human microglial CHME5, and human premonocytic U937 cell lines was assessed. Cells were incubated with different concentrations of rACT (up to 1 mM) for 2 days, and cell survival was determined. […]

CHME5 cells = assay: Cytotoxicity of rACT, FACS/trypan blue; assay type: cell-based, human; conditions: concentrations up to 1 mM, 2 days
Experimental: as §1, §2

U937 cells = assay: Cytotoxicity of rACT, FACS/trypan blue; assay type: cell-based, human; conditions: concentrations up to 1 mM, 2 days
Experimental: as §1, §2

[2] = system: HIV-1 vector (D3-GFP) in primary human macrophages; assay: HIV-GFP vector transduction of primary macrophages (GFP FACS); assay type: cell-based; conditions: rACT 0.1 and 1 mM, 7 days post infection, versus no treatment
Experimental: Human primary macrophages were preincubated with different concentrations of rACT (0, 10, 100 and 100 μM) for 24 hours and then transduced with HIV-GFP vector (equal p24 amounts). The percentages of GFP positive macrophages and PI positive cells in a representative donor, which were determined by FACS at 7 days post transduction, are shown. […] These experiments were performed in triplicate from three different blood donors.
Primary human macrophages were pretreated with ddUTP and transduced with a single round VSV-G pseudotyped HIV-1 vector (D3HIV). […] FIG. 10B is a graph showing the results from flow cytometry analysis of the transduced cells.
Next, rACT was evaluated for its ability to inhibit HIV-1 replication in non-dividing cells. The transduction efficiency of an HIV-1 vector in primary human macrophages in the presence and absence of rACT was measured. Human macrophages, which were prepared from multiple donors, were pre-incubated with various concentrations of rACT, and then transduced with an HIV vector (D3-GFP), which expressed all HIV-1 proteins except Env and Nef (replaced with eGFP). Virus infectivity was determined by FACS analysis for GFP expression at 7 days post infection.
Dideoxy uracil triphosphate (ddUTP) was assessed for its ability to inhibit viral reverse transcription in non-dividing cells. […]

[3] = system: HIV-1 2-LTR DNA circles (proviral DNA synthesis) in macrophages; assay: Quantitative 2LTR circle PCR in transduced macrophages; assay type: cell-based; conditions: rACT 0.1 and 1 mM, macrophages
Experimental: Human macrophages, which were prepared from multiple donors, were pre-incubated with various concentrations of rACT, and then transduced with an HIV vector (D3-GFP), which expressed all HIV-1 proteins except Env and Nef (replaced with eGFP).
(§3) Dideoxy uracil triphosphate (ddUTP) was assessed for its ability to inhibit viral reverse transcription in non-dividing cells. Primary human macrophages and CD4^+ T-cells were isolated from human buffy coats and pretreated with ddUTP. The treated cells were then transduced with a single round of VSV-G pseudotyped HIV-1 vector D3-HIV in the presence of various concentrations of drug.
Equal p24 level of the produced vector was used for infecting human macrophages pre-incubated with different concentrations of rACT (RI Chemicals, CA) for 12 hours. For ddUTP, the produced vector was pre-incubated for at least two hours. One half of the harvested cells were used for determining the percentages of the GFP expressing and/or propidium iodide (PI) stained cells by FACS at 7 days post infection. All cells used to asses transduction efficiency were gated or stained with propidium iodide to assure live cells were measured. The remaining cells were used for the extraction of genomic DNA. Quantitative 2LTR circle PCR assay using real-time PCR was normalized by total genomic DNA (Biorad, Hercules, Calif.).

[4] = system: HIV-1 vector (DHIV-GFP) in activated CD4+ T cells; assay: HIV-GFP vector transduction of activated CD4+ T cells (GFP FACS); assay type: cell-based; conditions: rACT 0.1 and 1 mM, activated CD4+ T cells compared to macrophages
Experimental: Next, rACT was evaluated for its ability to inhibit HIV-1 replication in non-dividing cells. The transduction efficiency of an HIV-1 vector in primary human macrophages in the presence and absence of rACT was measured. Human macrophages, which were prepared from multiple donors, were pre-incubated with various concentrations of rACT, and then transduced with an HIV vector (D3-GFP), which expressed all HIV-1 proteins except Env and Nef (replaced with eGFP). Virus infectivity was determined by FACS analysis for GFP expression at 7 days post infection. […] Finally, the effect of rACT on HIV-1 infection in activated CD4^+ T cells was examined.
as §3
rACT was tested in T cells as follows, human primary activated CD4^+ T cells (2.5×10^5) cells isolated from two donors were pre-treated with 0, 0.1, and 1 mM rACT for 4 hours, and then the cells were transduced with DHIV-GFP. The transduced cells were fixed at 48 hours post transduction, and analyzed by FACS for determining the percent of GFP cells. […]

[5] = system: human primary macrophages; assay: Toxicity of rNCTs in macrophages, propidium iodide-based FACS; assay type: cell-based; conditions: 0.5, 1 and 2 mM, 7 days
Experimental: Human primary macrophages were incubated in the presence or absence of rACT, rCCT, rGCT, or rUCT (0.5, 1 and 2 mM) for 7 days, and the percent of live cells (cell survival rate) were determined by propidium iodide-based FACS. FIG. 12 includes a graph of cell survival rate with each rNCTP.
The continuous HIV-1 culture system in human primary macrophages was also employed to evaluate the toxicity of rNCTs in nondividing cells. Human primary macrophages were incubated in the presence or absence of each rNCT (0.5, 1 and 2 mM) for 7 days, and the percentage of live cells (cell survival rate) were determined by propidium iodide-based FACS.

Nc1ncnc2c1ncn2[C@@H]1O[C@H](CO)C[C@H]1O [rACT, 3′-deoxyadenosine]
cytotoxicity [1]: no significant cytotoxicity
cytotoxicity (CHME5 cells): no significant cytotoxicity
cytotoxicity (U937 cells): no significant cytotoxicity
percent of macrophages expressing GFP [2]: reduced the percent of macrophages expressing GFP
2-LTR circle copy number [3]: substantially reduced the 2-LTR circle copy number
inhibitory effect on HIV-1 infection (GFP positive cells) [4]: less of an inhibitory effect
cytotoxicity (cell survival rate) [5]: no significant cytotoxicity
